Measured values: patent publication US20250144179A1, “PEPTIDE HORMONE TO PREVENT OR TREAT VASOSPASM, BRAIN INJURY OR CEREBRAL EDEMA” (UNIVERSITY OF FLORIDA RESEARCH FOUNDATION, INCORPORATED, priority 2022, published 2025)
“Also recorded” adds a separate entry of the source.

What was measured:
Format in all cases: in vivo, mouse
[1] = tested on: wild-type mice, SAH model; assay: Delayed cerebral vessel casting, MCA diameter (vasospasm) after SAH
Experimental: (§1) Synthetic adropin^34-76 peptide was supplied from Bachem (Bubendorf, Switzerland) and diluted in 0.1% BSA in saline. 0.1% BSA in saline was used as vehicle control for all experiments. […] For experiments ending at 24 hours post-SAH, an identical dose of adropin/vehicle was given again 12 hours later. For experiments ending 7 days post-SAH, adropin/vehicle was given again on days 1, 3 & 5 post-SAH. In the aneurysm rupture model, adropin was given at a dose of 450 nmol/kg starting 3 days before aneurysm induction (elastase injection). Adropin was given every other day until sacrifice
SAH was modeled using the anterior circulation single autologous blood injection method^25,33 with minor adjustments. Mice were anesthetized with ketamine (100 mg/kg) and xylazine (10 mg/kg) before removing hair from scalp and cleaning with serial betadine—saline washes. […]
Middle cerebral artery diameter were measured as previously reported.^36,37 One week post-SAH, mice were deeply anesthetized with ketamine and xylazine before being serially perfused through the left ventricle with PBS (5 mL), 4% PFA (15 mL), and 20% India ink dissolved in 5% gelatin. […] Brains were imaged and analyzed by an observer blinded to group assignment. The narrowest diameter within the first 2000 μm of the middle cerebral artery (MCA) after the terminal interior carotid artery bifurcation (M1 segment) was measured to assess vasospasm. […]

[2] = tested on: wild-type mice, SAH model; assay: Corner-turn preference test (sensorimotor deficits) after SAH
Experimental: as §1
SAH was modeled using the anterior circulation single autologous blood injection method^25,33 with minor adjustments. Mice were anesthetized with ketamine (100 mg/kg) and xylazine (10 mg/kg) before removing hair from scalp and cleaning with serial betadine—saline washes. The tail was also prepped from the base extending 1 cm distally. Mice were then fixed into a stereotaxic frame and body temperature maintained at 37° C. The scalp was incised along the sagittal suture from bregma to the nasal bone. The skin was reflected and a burr hole was drilled 5.0 mm rostral of bregma and 0.5 mm right laterally to avoid puncturing dural venous sinuses. […]

[3] = tested on: wild-type mice, SAH model; assay: TUNEL/NeuN staining for neuronal apoptosis after SAH; settings: seven days post-SAH
Experimental: (§2) Synthetic adropin^34-76 peptide was supplied from Bachem (Bubendorf, Switzerland) and diluted in 0.1% BSA in saline. 0.1% BSA in saline was used as vehicle control for all experiments. Adropin (450 nmol/kg) or an equivalent volume of vehicle was delivered via intraperitoneal injection 15 minutes post-SAH. For experiments ending at 24 hours post-SAH, an identical dose of adropin/vehicle was given again 12 hours later. For experiments ending 7 days post-SAH, adropin/vehicle was given again on days 1, 3 & 5 post-SAH. In the aneurysm rupture model, adropin was given at a dose of 450 nmol/kg starting 3 days before aneurysm induction (elastase injection). Adropin was given every other day until sacrifice
SAH was modeled using the anterior circulation single autologous blood injection method^25,33 with minor adjustments. […]
Following perfusion-fixation and overnight post-fixation in 4% PFA, brain samples were embedded in paraffin wax and cut into […] sections with a Leica RM2125 RTS microtome (Leica Microsystems, Buffalo Grove, New York) and adhered to poly-L-lysine-coated glass slides. […] Primary antibodies were detected using donkey anti-rabbit IgG AlexaFluor594, donkey anti-rabbit IgG AlexaFluor488, donkey anti-rat IgG AlexaFluor594, or donkey anti-goat IgG AlexaFluor488 (all from ThermoFisher, Waltham, Massachusetts). […] All images were analyzed by two blinded observers.

[4] = Mean arterial pressure in the aneurysm rupture model; settings: before and after aneurysm induction, adropin vs vehicle
Experimental: as §2
Cerebral aneurysms were induced as previously described. Briefly, mice were anesthetized with ketamine (100 mg/kg) and xylazine (10 mg/kg) before the left common carotid artery and the right renal artery were ligated with 7-0 silk suture (Ethicon Inc., Somerville, New Jersey). Carotid and renal artery ligations are hereafter referred to as ligations. […]

[5] = treatment initiated at 24 hours post-SAH

Substance: adropin (CHSRSADVDSLSESSPNSSPGPCPEKAPPPQKPSHEGSYLLQP) [Synthetic adropin^34-76 peptide from Bachem]
- ipsilateral MCA diameter (cerebral vasospasm) ([1]; seven days post-SAH, treatment started 15 minutes post-SAH): adropin-treatment reversed this phenotype
- cerebral vasospasm (MCA diameter) [1, 5]: strong trend for reduced cerebral vasospasm
- sensorimotor deficits [2, 5]: ability of adropin treatment to improve sensorimotor deficits was maintained
- corner turn preference (sensorimotor deficit) ([2]; up to one week post-SAH, treatment started 15 minutes post-SAH): reducing this sensorimotor deficit and normalizing corner turn preference
- NeuN+/TUNEL+ cells (neuronal apoptosis) [3]: did not have as many TUNEL^+ neurons
- systemic blood pressure / mean arterial pressure (MAP) [4]: No difference was found in blood pressure; also recorded: no effect on MAP before or after aneurysm induction
